Tests used:
Format in all cases: in vivo, C57BL/6 mice
[1] = test system: bleomycin-induced pulmonary fibrosis model; test: Comparison with comparative drugs: bleomycin-induced model, hydroxyproline and TGF-β; details: 120 mg/kg/d intragastric, twice every day, 14 days, from two weeks after model; Day 15
[2] = test system: bleomycin-induced pulmonary fibrosis model; test: Early pulmonary fibrosis: bleomycin-induced model, dosing from one week after modelling; details: early pulmonary fibrosis, 120 mg/kg/d intragastric, 14 days, from one week after model; for Leucocyte / Lymphocyte / Neutrophil: blood, Day 15, twice every day; for Ashcroft scores: lung tissue HE staining
[3] = test system: coronavirus-induced pulmonary fibrosis model (HcoV-OC43); test: Coronavirus-induced pulmonary fibrosis model; details: 120 mg/kg/d intragastric, 14 days; for Ashcroft scores: coronavirus HcoV-OC43 + bleomycin, lung tissue HE; for IL-1β / IL-6 / NF-κB / TNF-α: serum, HcoV-OC43 + bleomycin, from two weeks after model
From the text: (§1) Experimental method: an in-vivo coronavirus-induced pulmonary fibrosis model mice was established: C57BL/6 mice (with weights being 22-25 g) were randomly and evenly divided into a plurality of groups, including blank control group, model group, Nintedanib positive control group, hypoxanthine analogue A group, hypoxanthine analogue B group, hypoxanthine analogue C group, compound 1 group, compound 2 group . . . compound 12 group, with 9 mice in each group. On Day 1, the mice in the blank control group were instilled with normal saline nasally, and the mice in other groups were all infected with HcoV-OC43 coronavirus strains (30 μL) through nasal instillation. On Day 2, the mice received 5 mg/kg bleomycin through tracheas to induce their pulmonary fibrosis. After the model was established for two weeks, the mice in each group were intragastrically administrated for intervention for consecutive 14 days; the mice in blank control group and model group intragastrically received the same dosage of the normal saline as those in drug groups; the mice in Nintedanib positive control group received Nintedanib (120 mg/kg); the mice in hypoxanthine analogue A group, hypoxanthine analogue B group and hypoxanthine analogue C group respectively received hypoxanthine analogue A (120 mg/kg/d), hypoxanthine analogue B (120 mg/kg/d) and hypoxanthine analogue C (120 mg/kg/d); and the mice in compound 1 group, compound 2 group . . . compound 12 group respectively received compound 1 (120 mg/kg/d), compound 2 (120 mg/kg/d) . . . compound 12 (120 mg/kg/d) prepared in example 1. After administration for consecutive 14 days, the mice were observed every day, and their weights and death conditions were recorded. After administration, blood was taken from eyeballs for immediately detecting the expression levels of NF-κB, TNF-α, IL-1 and IL-6 in serum, and lung tissues were taken for HE detection and Ashcroft scoring.

[4] = test system: influenza B virus-induced pulmonary fibrosis model (influenza B (H7N9) virus); details: 120 mg/kg/d intragastric, 14 days; for Ashcroft scores: influenza B virus + bleomycin, lung tissue HE; for IL-1β / NF-κB / TNF-α / IL-6: serum, from two weeks after model; for IL-1β / NF-κB / TNF-α: influenza B (H7N9) + bleomycin; for IL-6: influenza B + bleomycin
[5] = test system: influenza A virus-induced pulmonary fibrosis model (FM1 strain of influenza A (H1N1) virus); test: Influenza A virus-induced pulmonary fibrosis model; details: 120 mg/kg/d intragastric, 14 days; for Ashcroft scores: influenza A virus + bleomycin, lung tissue HE; for IL-1β / IL-6 / NF-κB / TNF-α: serum, influenza A (H1N1) FM1 + bleomycin, from two weeks after model
From the text: as §1, with “influenza A virus-induced” for “coronavirus-induced”, “model” for “model mice”, “in” for “in the”, “a FM1 strain of an influenza A (H1N1) virus 30 (μL)” for “HcoV-OC43 coronavirus strains (30 μL)”

Structure (SMILES) | Hydroxyproline in bronchoalveolar lavage fluids [1] | Hydroxyproline in lung tissues [1] | TGF-β in bronchoalveolar lavage fluids [1] | TGF-β in lung tissues [1] | Leucocyte [2] | Lymphocyte [2] | Ashcroft scores [3] | IL-1β [3] | IL-6 [3] | NF-κB [3] | TNF-α [3] | Ashcroft scores [4] | IL-1β [4] | NF-κB [4] | TNF-α [4] | IL-6 [4] | IL-1β [5] | IL-6 [5] | NF-κB [5] | TNF-α [5] | further results
CC(C)Oc1ncnc2[nH]cnc12 [Compound 1] | 0.75 ± 0.04 µg/mg | 1.45 ± 0.09 µg/mg | 4.05 ± 0.15 µg/L | 24.15 ± 1.21 µg/L | 4.15 10^9/L | 5.42 10^9/L | 1.18 | 31.8 pg/mL | 62.7 pg/mL | 23.9 pg/mL | 51.8 pg/mL | 1.19 | 26.3 pg/mL | 30.5 pg/mL | 72.9 pg/mL | 65.1 pg/mL | 28.8 pg/mL | 63.9 pg/mL | 26.5 pg/mL | 87.1 pg/mL | Neutrophil [2]: 1.11 10^9/L; Ashcroft scores [2]: 0.99; Ashcroft scores [5]: 1.21
CC(C)n1cnc2c(=O)[nH]cnc21 [Compound 2] | 0.74 ± 0.05 µg/mg | 1.51 ± 0.08 µg/mg | 4.02 ± 0.15 µg/L | 24.10 ± 2.14 µg/L | 4.11 10^9/L | 5.19 10^9/L | 1.16 | 32.0 pg/mL | 62.6 pg/mL | 24.6 pg/mL | 51.2 pg/mL | 1.09 | 26.6 pg/mL | 29.5 pg/mL | 72.6 pg/mL | 65.4 pg/mL | 27.1 pg/mL | 62.7 pg/mL | 25.5 pg/mL | 87.3 pg/mL | Neutrophil [2]: 1.04 10^9/L; Ashcroft scores [2]: 1.01; Ashcroft scores [5]: 1.25
CC(C)Oc1ncnc2c1ncn2C(C)C [Compound 3] | 0.70 ± 0.05 µg/mg | 1.31 ± 0.07 µg/mg | 3.95 ± 0.19 µg/L | 24.15 ± 2.04 µg/L | 4.01 10^9/L | 4.99 10^9/L | 1.03 | 31.3 pg/mL | 61.7 pg/mL | 23.7 pg/mL | 49.9 pg/mL | 0.98 | 25.8 pg/mL | 28.8 pg/mL | 71.8 pg/mL | 64.1 pg/mL | 26.3 pg/mL | 62.9 pg/mL | 24.3 pg/mL | 86.1 pg/mL | Neutrophil [2]: 0.96 10^9/L; Ashcroft scores [2]: 0.92; Ashcroft scores [5]: 1.18
CC(C)Oc1ncnc2ncn(C(C)C)c12 [Compound 4] | 0.71 ± 0.08 µg/mg | 1.29 ± 0.08 µg/mg | 3.95 ± 0.14 µg/L | 24.58 ± 1.95 µg/L | 4.29 10^9/L | 5.56 10^9/L | 1.39 | 35.5 pg/mL | 63.9 pg/mL | 26.7 pg/mL | 52.9 pg/mL | 1.17 | 27.6 pg/mL | 29.3 pg/mL | 73.9 pg/mL | 66.7 pg/mL | 29.6 pg/mL | 65.1 pg/mL | 27.4 pg/mL | 89.8 pg/mL | Neutrophil [2]: 1.31 10^9/L; Ashcroft scores [2]: 1.18; Ashcroft scores [5]: 1.29
CC(C)Oc1ncnc2nc[nH]c12 [Compound 5] | 0.69 ± 0.09 µg/mg | 1.43 ± 0.07 µg/mg | 3.93 ± 0.18 µg/L | 24.18 ± 1.65 µg/L | 4.23 10^9/L | 5.60 10^9/L | 1.31 | 37.1 pg/mL | 64.9 pg/mL | 25.9 pg/mL | 52.6 pg/mL | 1.18 | 28.1 pg/mL | 31.4 pg/mL | 76.6 pg/mL | 66.9 pg/mL | 28.1 pg/mL | 65.6 pg/mL | 27.7 pg/mL | 90.2 pg/mL | Neutrophil [2]: 1.26 10^9/L; Ashcroft scores [2]: 1.22
CC(C)n1cnc2nc[nH]c(=O)c21 [Compound 6] | 0.68 ± 0.07 µg/mg | 1.46 ± 0.07 µg/mg | 3.91 ± 0.18 µg/L | 24.18 ± 2.14 µg/L | 4.25 10^9/L | 5.49 10^9/L | 1.30 | 39.5 pg/mL | 65.7 pg/mL | 29.3 pg/mL | 56.2 pg/mL | 1.14 | 27.2 pg/mL | 32.4 pg/mL | 75.3 pg/mL | 65.6 pg/mL | 28.5 pg/mL | 66.1 pg/mL | 27.8 pg/mL | 90.3 pg/mL | Neutrophil [2]: 1.19 10^9/L; Ashcroft scores [2]: 1.08; Ashcroft scores [5]: 1.26
COc1ncnc2c1ncn2C(C)C [Compound 7] | 0.69 ± 0.08 µg/mg | 1.42 ± 0.14 µg/mg | 4.02 ± 0.15 µg/L | 25.15 ± 2.53 µg/L | – | – | 1.49 | 33.2 pg/mL | 64.3 pg/mL | 25.6 pg/mL | 55.9 pg/mL | 1.20 | 27.9 pg/mL | 33.4 pg/mL | 74.1 pg/mL | 70.3 pg/mL | 29.0 pg/mL | 65.3 pg/mL | 26.4 pg/mL | 91.2 pg/mL | Leucocyte ([2]; 120 mg/kg/day): 4.19 10^9/L; Lymphocyte ([2]; 120 mg/kg/day): 5.44 10^9/L; Neutrophil ([2]; 120 mg/kg/day): 1.23 10^9/L; Ashcroft scores ([2]; 120 mg/kg/day): 1.11; Ashcroft scores [5]: 1.28
